These results are taken from paper PMC4501059, “Responding to the challenge of untreatable gonorrhea: ETX0914, a first-in-class agent with a distinct mechanism-of-action against bacterial Type II topoisomerases” (Scientific Reports, 2015).

≈ marks a conversion by molar mass, not a printed value. Bounds are passed on as bounds.

The nature of one data set: Dog pharmacokinetics. Format: in vivo, Beagle dog. Particulars: beagle, dog, plasma. As for the experimental part: AZD0914 was analyzed in mouse, rat, dog, monkey plasma using a qualified method which was later validated for human plasma analysis. The validated human method is described below and is representative of the approach taken in other species. AZD0914 was determined in human plasma prepared with K2EDTA as an anticoagulant. AZD0914 and an internal standard (^13C2, ^15N2 AZD0914) were extracted from plasma with tert- butyl methyl ether. After evaporating to dryness under a stream of nitrogen, the residue was reconstituted and quantitated by reverse phase HPLC-MS/MS against a standard curve from 1.00 to 5000 ng/ml. Separation was achieved using a gradient which went from 55% to 85% methanol:acetonitrile (1:1) containing 0.2% formic acid as mobile phase B and 0.2% formic acid in water as mobile phase A at a flow rate of 0.60 ml/min through a Phenomonex Gemini C18 column (50 x 2.0 mm column, […]) heated using a Shimadzu CTO-20AC set to 40 °C. AZD0914 was detected in multiple reaction monitoring (MRM) mode by positive ion electrospray ionization using a Sciex API5500 (Toronto, Canada) mass spectrometer. The ion spray voltage was set to 5500 V and turboionspray temperature was 650 °C. AZD0914 was quantitated using the MRM transition 488.2 → 348.2 using a collision energy of 29 eV. The internal standard, (^13C2, ^15N2 AZD0914), was monitored using identical conditions except for the MRM transition of 492.2 → 348.2.

For a further data set, the system named is S. pneumoniae ATCC49619. Kind of data set: MIC (CLSI broth microdilution). Type of data set: cell-based.
In data set [1] the test system is S. aureus AP607004 (MRQR). Kind of data set: MIC (CLSI broth microdilution). Format: cell-based. (In general: Dilution methods test growth across graded concentrations, often in twofold steps.)
In another data set the target is hERG (Homo sapiens, UniProt Q12809). Briefly: In vitro ion channel function. The note with it: hERG IC50, K^+ rectifying current/QT interval. Background: hERG is a cardiac potassium channel; its block is linked to QT prolongation.
Data set [2] has as its system N. gonorrhoeae ARC4676 (QR). Format: cell-based.
In another data set the test system is mouse lymphoma cells. Briefly: in vitro mouse micronucleus aberration assay (MMA). Format: cell-based. Particulars: for Micronucleus NOEL: in vitro. As for the experimental part: (§1) In vitro toxicology. Experiments for assessing micronuclei in mouse lymphoma cells^19 myeloid cytotoxicity^20 and erythroid cytotoxicity^21 were performed as described previously.

Data set [3] can be described thus: Human plasma protein binding (PPB). The note with it: plasma.
For the next data set, the target named is Iks/Kv7.1 (Homo sapiens, UniProt P51787). Kind of data set: In vitro ion channel function. The note with it: Iks/Kv7.1 IC50, Slowly activating K^+ delayed rectifier. Format: cell-based. The source says:
(§2) Supplement srep11827-s1.doc, table 3 | column: Table S2: In vitro ion channel function IC50 (µM)

For the next data set, the target named is hNav1.5 (Homo sapiens, UniProt Q14524). Kind of data set: In vitro ion channel function. The note with it: hNav1.5 IC50, Initiation of cardiac action potential/QRS interval. Format: cell-based.
Description: as §2

Another data set concerns the target hCav1.2 (Homo sapiens, UniProt Q13936). Briefly: In vitro ion channel function. Format: cell-based. Particulars: hCav1.2 IC50, Ca^2+ entry into excitable cells.
Description: as §2

In a further data set the target is T1, Ito/Kv4.3 (Homo sapiens, UniProt Q9UK17).
T1 sequence (Q9UK17 1-655): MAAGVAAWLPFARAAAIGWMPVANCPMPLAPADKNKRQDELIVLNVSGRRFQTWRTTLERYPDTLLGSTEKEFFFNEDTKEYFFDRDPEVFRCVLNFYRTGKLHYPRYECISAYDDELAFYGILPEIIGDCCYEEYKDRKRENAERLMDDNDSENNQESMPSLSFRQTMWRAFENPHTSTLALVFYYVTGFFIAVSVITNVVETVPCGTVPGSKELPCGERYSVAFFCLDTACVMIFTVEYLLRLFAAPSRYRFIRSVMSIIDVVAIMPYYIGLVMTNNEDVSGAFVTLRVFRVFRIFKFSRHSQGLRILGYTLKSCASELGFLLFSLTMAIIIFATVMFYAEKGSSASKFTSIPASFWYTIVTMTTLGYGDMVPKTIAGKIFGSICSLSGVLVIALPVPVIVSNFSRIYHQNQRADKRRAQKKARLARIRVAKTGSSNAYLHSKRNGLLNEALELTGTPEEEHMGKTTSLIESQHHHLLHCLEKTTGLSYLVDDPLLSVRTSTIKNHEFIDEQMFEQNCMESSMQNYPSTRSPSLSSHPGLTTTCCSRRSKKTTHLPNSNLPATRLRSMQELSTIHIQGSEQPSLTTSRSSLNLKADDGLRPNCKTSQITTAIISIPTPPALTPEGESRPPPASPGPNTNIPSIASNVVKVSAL
Kind of data set: In vitro ion channel function. Particulars: Ito/Kv4.3 IC50, Transient outward K^+ early repolarization. Type of data set: cell-based.
Description: as §2

A further data set deals with Kv1.5 (Homo sapiens, UniProt P22460). Kind of data set: In vitro ion channel function. The note with it: Ikr/Kv1.5 IC50, Rapidly activating K^+ delayed rectifier. Type of data set: cell-based.
Description: as §2

Data set [4] concerns S. pneumoniae ARC2205 (ERQR). Kind of data set: MIC (CLSI broth microdilution). Format: cell-based.
Another data set deals with S. aureus ARC516. Kind of data set: MIC (CLSI broth microdilution). Type of data set: cell-based.
A further data set concerns N. gonorrhoeae ATCC49226. Kind of data set: MIC (CLSI agar dilution). Type of data set: cell-based. For orientation: In agar dilution the substance is mixed into plates at graded concentrations.
Data set [5] deals with mammalian myeloid cell lines. Briefly: myeloid cytotoxicity (growth inhibition). Type of data set: cell-based. Particulars: read-out: Myeloid IC50. As for the experimental part:
as §1

The test system of data set [6] is mammalian erythroid cell lines. Kind of data set: erythroid cytotoxicity (growth inhibition). The note with it: read-out: Erythroid IC50. Type of data set: cell-based. As for the experimental part:
as §1

Chain of hERG (Q12809 whole entry): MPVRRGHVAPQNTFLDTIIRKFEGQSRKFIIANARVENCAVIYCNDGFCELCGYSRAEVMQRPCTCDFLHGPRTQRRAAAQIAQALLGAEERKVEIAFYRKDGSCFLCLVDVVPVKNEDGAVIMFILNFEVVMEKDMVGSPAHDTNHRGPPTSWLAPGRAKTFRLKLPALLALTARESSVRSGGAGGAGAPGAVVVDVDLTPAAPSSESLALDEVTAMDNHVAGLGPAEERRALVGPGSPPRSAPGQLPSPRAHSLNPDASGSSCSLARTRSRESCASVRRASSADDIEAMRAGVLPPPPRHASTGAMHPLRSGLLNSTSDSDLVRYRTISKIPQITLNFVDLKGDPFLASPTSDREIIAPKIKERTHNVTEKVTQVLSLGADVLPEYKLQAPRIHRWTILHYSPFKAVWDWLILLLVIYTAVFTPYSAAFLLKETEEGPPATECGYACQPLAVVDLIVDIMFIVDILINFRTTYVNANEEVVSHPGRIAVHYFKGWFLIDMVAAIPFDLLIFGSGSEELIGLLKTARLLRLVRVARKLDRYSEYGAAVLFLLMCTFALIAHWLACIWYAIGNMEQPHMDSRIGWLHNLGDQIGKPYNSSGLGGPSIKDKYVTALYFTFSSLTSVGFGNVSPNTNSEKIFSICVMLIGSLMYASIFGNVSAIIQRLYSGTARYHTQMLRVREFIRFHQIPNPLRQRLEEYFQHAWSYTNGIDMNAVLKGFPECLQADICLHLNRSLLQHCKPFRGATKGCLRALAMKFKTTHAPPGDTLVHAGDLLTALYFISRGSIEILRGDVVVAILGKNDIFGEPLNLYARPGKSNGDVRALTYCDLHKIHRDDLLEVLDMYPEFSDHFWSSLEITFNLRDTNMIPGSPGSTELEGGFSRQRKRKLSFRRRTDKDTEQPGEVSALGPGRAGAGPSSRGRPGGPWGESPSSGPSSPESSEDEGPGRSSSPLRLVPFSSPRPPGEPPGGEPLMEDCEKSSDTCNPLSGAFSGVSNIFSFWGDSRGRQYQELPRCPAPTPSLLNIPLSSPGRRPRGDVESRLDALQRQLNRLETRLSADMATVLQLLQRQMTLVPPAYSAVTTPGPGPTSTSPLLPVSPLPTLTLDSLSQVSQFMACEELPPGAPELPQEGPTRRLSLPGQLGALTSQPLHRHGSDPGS
Chain of hCav1.2 (P54289 25-1103): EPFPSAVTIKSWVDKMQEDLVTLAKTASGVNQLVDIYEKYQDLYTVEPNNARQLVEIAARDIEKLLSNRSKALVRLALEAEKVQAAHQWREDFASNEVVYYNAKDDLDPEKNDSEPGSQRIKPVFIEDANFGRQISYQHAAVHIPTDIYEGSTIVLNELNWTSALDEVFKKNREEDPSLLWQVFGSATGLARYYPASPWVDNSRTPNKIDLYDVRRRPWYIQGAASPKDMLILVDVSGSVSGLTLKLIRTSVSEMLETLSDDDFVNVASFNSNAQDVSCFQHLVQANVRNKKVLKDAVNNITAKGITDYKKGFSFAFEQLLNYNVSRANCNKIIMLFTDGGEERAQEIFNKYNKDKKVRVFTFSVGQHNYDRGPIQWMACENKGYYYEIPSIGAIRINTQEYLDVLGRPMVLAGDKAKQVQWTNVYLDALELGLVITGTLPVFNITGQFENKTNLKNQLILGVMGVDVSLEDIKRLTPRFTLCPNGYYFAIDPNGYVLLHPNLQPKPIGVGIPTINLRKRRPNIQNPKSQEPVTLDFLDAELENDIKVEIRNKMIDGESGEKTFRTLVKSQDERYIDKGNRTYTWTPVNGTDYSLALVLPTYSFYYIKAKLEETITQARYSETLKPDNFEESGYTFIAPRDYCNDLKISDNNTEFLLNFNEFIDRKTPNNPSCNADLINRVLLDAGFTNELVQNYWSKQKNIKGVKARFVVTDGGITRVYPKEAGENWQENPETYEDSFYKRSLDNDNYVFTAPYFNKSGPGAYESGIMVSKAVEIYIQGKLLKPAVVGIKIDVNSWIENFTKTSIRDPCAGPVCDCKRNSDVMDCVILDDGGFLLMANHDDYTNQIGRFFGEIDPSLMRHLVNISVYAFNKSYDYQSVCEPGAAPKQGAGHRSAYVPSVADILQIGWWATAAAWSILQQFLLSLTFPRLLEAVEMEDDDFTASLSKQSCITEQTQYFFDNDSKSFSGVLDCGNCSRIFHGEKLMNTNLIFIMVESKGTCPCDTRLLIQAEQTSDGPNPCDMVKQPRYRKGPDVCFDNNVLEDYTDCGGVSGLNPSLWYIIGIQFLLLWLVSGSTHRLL
Chain of hCav1.2 (Q13936 whole entry): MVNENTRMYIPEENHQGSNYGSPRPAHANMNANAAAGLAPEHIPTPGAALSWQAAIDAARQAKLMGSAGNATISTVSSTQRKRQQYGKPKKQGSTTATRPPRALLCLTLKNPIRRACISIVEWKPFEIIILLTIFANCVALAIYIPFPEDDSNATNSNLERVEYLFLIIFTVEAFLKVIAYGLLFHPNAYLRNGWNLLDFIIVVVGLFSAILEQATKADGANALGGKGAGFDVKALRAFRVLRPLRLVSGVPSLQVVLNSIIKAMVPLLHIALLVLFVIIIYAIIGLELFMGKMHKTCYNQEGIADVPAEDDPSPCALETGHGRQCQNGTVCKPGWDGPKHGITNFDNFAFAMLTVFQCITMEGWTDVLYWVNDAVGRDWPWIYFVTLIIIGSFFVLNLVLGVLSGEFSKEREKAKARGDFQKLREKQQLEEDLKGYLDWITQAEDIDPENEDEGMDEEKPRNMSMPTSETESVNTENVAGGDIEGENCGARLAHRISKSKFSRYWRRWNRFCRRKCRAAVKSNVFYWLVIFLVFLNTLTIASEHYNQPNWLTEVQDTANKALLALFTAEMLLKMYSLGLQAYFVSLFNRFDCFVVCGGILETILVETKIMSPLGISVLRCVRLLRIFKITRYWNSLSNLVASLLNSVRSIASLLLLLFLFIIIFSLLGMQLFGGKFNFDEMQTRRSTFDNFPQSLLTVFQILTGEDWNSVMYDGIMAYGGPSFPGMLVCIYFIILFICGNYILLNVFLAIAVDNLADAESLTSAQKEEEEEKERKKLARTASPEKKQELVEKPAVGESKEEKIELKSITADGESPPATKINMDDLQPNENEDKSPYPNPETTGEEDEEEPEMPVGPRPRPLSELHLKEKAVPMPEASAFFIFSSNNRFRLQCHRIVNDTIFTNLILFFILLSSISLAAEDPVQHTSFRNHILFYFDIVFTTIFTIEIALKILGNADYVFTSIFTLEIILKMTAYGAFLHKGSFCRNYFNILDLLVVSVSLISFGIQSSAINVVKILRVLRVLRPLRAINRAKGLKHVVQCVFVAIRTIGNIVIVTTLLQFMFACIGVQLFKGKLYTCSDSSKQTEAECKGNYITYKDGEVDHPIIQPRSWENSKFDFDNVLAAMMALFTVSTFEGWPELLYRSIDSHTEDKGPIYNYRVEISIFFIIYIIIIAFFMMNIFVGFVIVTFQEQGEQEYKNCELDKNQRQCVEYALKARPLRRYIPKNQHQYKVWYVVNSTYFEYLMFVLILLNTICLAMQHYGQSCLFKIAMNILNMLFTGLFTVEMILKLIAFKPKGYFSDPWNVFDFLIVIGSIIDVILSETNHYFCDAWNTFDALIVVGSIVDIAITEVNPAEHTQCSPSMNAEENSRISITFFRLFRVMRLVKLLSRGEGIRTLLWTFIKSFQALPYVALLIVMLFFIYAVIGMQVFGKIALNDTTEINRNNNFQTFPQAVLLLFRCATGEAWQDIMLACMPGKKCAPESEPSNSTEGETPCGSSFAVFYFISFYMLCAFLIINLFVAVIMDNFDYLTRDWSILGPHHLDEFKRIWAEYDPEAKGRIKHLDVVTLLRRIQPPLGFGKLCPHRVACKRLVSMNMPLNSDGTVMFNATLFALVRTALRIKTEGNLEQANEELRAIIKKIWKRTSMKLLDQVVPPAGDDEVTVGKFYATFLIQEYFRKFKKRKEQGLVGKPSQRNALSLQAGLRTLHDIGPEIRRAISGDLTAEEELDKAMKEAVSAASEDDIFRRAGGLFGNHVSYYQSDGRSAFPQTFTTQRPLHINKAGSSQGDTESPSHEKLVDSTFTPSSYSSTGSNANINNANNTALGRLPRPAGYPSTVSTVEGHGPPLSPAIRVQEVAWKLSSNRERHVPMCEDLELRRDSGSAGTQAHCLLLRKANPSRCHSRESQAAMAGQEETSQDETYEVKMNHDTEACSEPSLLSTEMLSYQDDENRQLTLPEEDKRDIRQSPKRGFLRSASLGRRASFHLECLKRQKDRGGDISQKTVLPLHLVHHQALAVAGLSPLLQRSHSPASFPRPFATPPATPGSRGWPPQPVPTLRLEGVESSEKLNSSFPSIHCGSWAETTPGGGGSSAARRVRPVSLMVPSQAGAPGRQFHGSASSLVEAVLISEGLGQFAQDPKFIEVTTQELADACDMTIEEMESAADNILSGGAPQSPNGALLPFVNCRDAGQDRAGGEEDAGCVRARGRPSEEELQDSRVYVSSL
Chain of hCav1.2 (Q08289 whole entry, further chain): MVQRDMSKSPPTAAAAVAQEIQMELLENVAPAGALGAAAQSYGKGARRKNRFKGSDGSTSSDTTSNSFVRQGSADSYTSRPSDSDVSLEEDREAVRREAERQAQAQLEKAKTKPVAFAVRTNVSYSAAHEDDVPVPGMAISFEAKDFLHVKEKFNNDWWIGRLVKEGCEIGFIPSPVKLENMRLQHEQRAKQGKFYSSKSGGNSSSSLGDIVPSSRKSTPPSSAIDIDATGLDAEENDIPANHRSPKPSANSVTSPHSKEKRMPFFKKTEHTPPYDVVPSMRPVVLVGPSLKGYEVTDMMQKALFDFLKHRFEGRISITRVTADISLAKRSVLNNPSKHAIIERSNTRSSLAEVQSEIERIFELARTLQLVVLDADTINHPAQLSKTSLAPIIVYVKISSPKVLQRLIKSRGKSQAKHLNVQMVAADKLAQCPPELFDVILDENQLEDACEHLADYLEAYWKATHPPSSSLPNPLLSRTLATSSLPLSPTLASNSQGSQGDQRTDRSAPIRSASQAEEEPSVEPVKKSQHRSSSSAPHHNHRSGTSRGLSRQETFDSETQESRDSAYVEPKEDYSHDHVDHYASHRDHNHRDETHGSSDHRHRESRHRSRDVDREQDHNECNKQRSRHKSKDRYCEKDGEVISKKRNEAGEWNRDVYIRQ

`Cc1noc2c(F)c3c(cc12)CC1(C(=O)NC(=O)NC1=O)[C@H]1[C@H](C)O[C@H](C)CN31` [Compound 5, (2R,4S,4aS)-11-Fluoro-2,4,8-trimethyl-2,4,4a,6-tetrahydro-1H,1'H-spiro[isoxazolo[4,5-g][1,4]oxazino[4,3-a]quinoline-5,5'-pyrimidine]-2',4',6'(3'H)-trione]: in the data set “Dog pharmacokinetics”, the “Dog F” value amounted to 47%. The clearance (commonly the volume of plasma or blood freed of the substance per unit of time) in the data set “Dog pharmacokinetics” came to 5.3 mL/min/kg. In the data set with S. pneumoniae ATCC49619, the “MIC: S. pneumoniae ATCC49619” value came out at 1.0 µg/mL (≈ 2.49 µM). In addition, the “MIC: S. aureus AP607004 (MRQR)” value in data set [1] is 0.5 µg/mL (≈ 1.24 µM). Further, the IC50 – broadly, the concentration at which inhibition is half-maximal – against hERG was > 100 µM; at Iks/Kv7.1, > 100 µM; at hNav1.5, > 80 µM; on hCav1.2, > 100 µM; against Ito/Kv4.3 it was > 100 µM; against Kv1.5, > 100 µM. For the same compound, the “MIC: N. gonorrhoeae ARC4676 (QR)” value in data set [2] turned out to be 0.5 µg/mL (≈ 1.24 µM). Also, the “Micronucleus NOEL” value in the data set with mouse lymphoma cells turned out to be 50 µM. For the same compound, in the data set with mouse lymphoma cells (mouse), the “concentration giving a measurable genotoxicity signal in the in vitro MMA” value was 100 µM. Further, the fraction unbound (in general, free concentration divided by total concentration) in data set [3] worked out at 0.094. Also, in data set [4], the “MIC: S. pneumoniae ARC2205 (ERQR)” value was 2.0 µg/mL (≈ 4.97 µM). Moreover, the “MIC: S. aureus ARC516” value against S. aureus ARC516 came to 0.25 µg/mL (≈ 0.621 µM). The “MIC: N. gonorrhoeae ATCC49226” value against N. gonorrhoeae ATCC49226 is 0.5 µg/mL (≈ 1.24 µM). For the same compound, in “physchem”, the concentration in solution (solubility) came to 210 µM (≈ 84.5 µg/mL).

Take `C[C@@H]1CN2c3c(cc4c(C(=O)NCC(F)(F)F)noc4c3F)CC3(C(=O)NC(=O)NC3=O)[C@H]2[C@H](C)O1` [Compound 7]: the “Dog F” value in the data set “Dog pharmacokinetics” is 74%. Moreover, the clearance in “Dog pharmacokinetics” turned out to be 5.8 mL/min/kg. Also, the IC50 in data set [5] is 43 µM; at hERG, 91 µM; on Iks/Kv7.1, > 100 µM; on hNav1.5, > 100 µM; against hCav1.2, > 100 µM; against Ito/Kv4.3 it was > 90 µM. Also, the IC50 is > 100 µM against Kv1.5 and 95 µM in data set [6]. In addition, the “MIC: S. pneumoniae ATCC49619” value in the data set on S. pneumoniae ATCC49619 was determined as 0.125 µg/mL (≈ 0.243 µM). Further, in data set [1], the “MIC: S. aureus AP607004 (MRQR)” value came out at 0.25 µg/mL (≈ 0.487 µM). In [2], the “MIC: N. gonorrhoeae ARC4676 (QR)” value was 0.25 µg/mL (≈ 0.487 µM). In the data set with mouse lymphoma cells, the “Micronucleus NOEL” value was 100 µM. Also, the fraction unbound in data set [3] was found to be 0.13. The “MIC: S. pneumoniae ARC2205 (ERQR)” value in [4] was 0.125 µg/mL (≈ 0.243 µM). The “MIC: S. aureus ARC516” value in the data set on S. aureus ARC516 turned out to be 0.125 µg/mL (≈ 0.243 µM). For the same compound, in the data set on N. gonorrhoeae ATCC49226, the “MIC: N. gonorrhoeae ATCC49226” value came to 0.25 µg/mL (≈ 0.487 µM). Moreover, the solubility (commonly the dissolved amount per volume that the medium holds) in the data set “physchem” worked out at 77 µM (≈ 39.5 µg/mL).
